Results from ChEMBL document CHEMBL1201862, “PubChem BioAssay data set” (2004).
One block for each compound: values may come before it. Activity calls are given as the source filed them.

Tests used:
[1] = HIV-1 AD8 envelope cell-cell fusion blockers – cherry-pick, dose response (AID 652062); assay type: functional, cell-based;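 note: luciferase signal from cell-cell fusion driven by HIV-1 clade B AD8 Env; potency is for inhibitors of fusion seen as a drop in luminescence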
HEK293 [2] = assay: cells; assay type: functional, cell-based; conditions: Homo sapiens
[3] = off-target signal loss in HeLa-CEM21 co-culture – HeLa F-luc CTL cells, cherry-picked, counter-screen for HIV-1 Env fusion inhibitor project, dose response (AID 652040); assay type: functional, cell-based;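 note: potency for signal decrease marking cytotoxic or nonspecific inhibition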
[4] = blockers of HIV-1 ZM109 envelope-driven cell-cell fusion – HeLa effector, CEM target cells, luciferase, cherry-pick, dose response (AID 652058); assay type: functional, cell-based;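 note: luciferase signal from HIV-1 Env mediated cell-cell fusion of effector and target cells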
[5] = molecular target: Nucleotide-binding oligomerization domain-containing protein 2 (Homo sapiens, UniProt Q9HC29); assay: inhibition of NOD2-driven NF-kB reporter – cell-based, luminescence, uHTS, HEK293 (AID 1566); assay type: functional
Interleukin-8 = molecular target: T1, Interleukin-8 (Homo sapiens, UniProt P10145); assay: Dose Response confirmation of uHTS small molecule hits for cystic fibrosis induced NFkb Inhibitors in a PAF-induced IL8 counterscreen.; assay type: functional; conditions: read-out: IC50_Mean
T1 sequence (P10145 whole entry): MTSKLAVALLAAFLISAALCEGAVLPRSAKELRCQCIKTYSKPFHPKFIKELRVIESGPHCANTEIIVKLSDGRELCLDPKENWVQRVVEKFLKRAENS

HEK293 [6] = assay: NOD2 signaling inhibitors in MDP-stimulated cells, cell-based, uHTS, luminescence (AID 2001); assay type: functional; conditions: Homo sapiens
HEK293 [7] = assay: inhibition of NOD1-driven NF-kB reporter – cell-based, luminescence, uHTS, primary screen (AID 1578); assay type: functional; conditions: Homo sapiens
HEK293 [8] = assay: cells; assay type: functional, cell-based; conditions: Homo sapiens; remark: listed apart in the source
HEK293 [9] = assay: cells; assay type: functional, cell-based; conditions: Homo sapiens; remark: listed apart in the source
[10] = blockers of HIV-1 envelope-mediated cell-cell fusion – cherry-pick, dose response (AID 652057); assay type: functional, cell-based
[11] = molecular target: T2, Protein disulfide-isomerase (Homo sapiens, UniProt P07237); assay: inhibition of PDI-driven insulin aggregation – biochemical, turbidity, absorbance, cherry-picked samples, dose response (AID 602350); assay type: functional
[12] = molecular target: T2, Protein disulfide-isomerase; assay: inhibition of PDI-mediated insulin reduction – biochemical, turbidity, absorbance, cherry-picked samples, set 2, dose response (AID 624274); assay type: functional
PglD = PglD (Campylobacter jejuni, UniProt O86157); assay: inhibition of C. jejuni PglD N-acetyltransferase – biochemical, DTNB absorbance, cherry-picked samples, set 2, dose response (AID 624257); assay type: functional
[13] = molecular target: ATP-dependent translocase ABCB1 (Homo sapiens, UniProt P08183); assay: P-gp JC-1 efflux blockade concentration-response – Jurkat-DNR cells, flow cytometry, set 2, dose response (AID 504569); assay type: functional; conditions: read-out: EC50_MICROM_;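 note: potency of pump inhibitors that raise cellular JC-1 green fluorescence up to the nicardipine level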
H9c2 = assay: cells; assay type: functional, cell-based; conditions: Rattus norvegicus, H9c2, Myocardium;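 note: confirmatory concentration-response retest of ultra-high-throughput screening hits for modulation of myocardial damage; cell death induced by hydrogen peroxide oxidative stress; compound pretreatment for 60 min then peroxide exposure for 2 h; potency is for protecting the cells against peroxide damage rather than for killing them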
[14] = mammalian cell viability loss – Alamar Blue, dry powder, cytotoxicity control for antifungal single agent project, dose response (AID 602188); assay type: functional, cell-based
[15] = molecular target: Ras and Rab interactor 1/Tyrosine-protein kinase ABL1 (Homo sapiens, UniProt P00519+Q13671); assay type: functional;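 note: biochemical TR-FRET dose-response test measuring inhibition of binding between Rin1 and Abl proteins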
Sequence of Ras and Rab interactor 1/Tyrosine-protein kinase ABL1 (P00519 whole entry): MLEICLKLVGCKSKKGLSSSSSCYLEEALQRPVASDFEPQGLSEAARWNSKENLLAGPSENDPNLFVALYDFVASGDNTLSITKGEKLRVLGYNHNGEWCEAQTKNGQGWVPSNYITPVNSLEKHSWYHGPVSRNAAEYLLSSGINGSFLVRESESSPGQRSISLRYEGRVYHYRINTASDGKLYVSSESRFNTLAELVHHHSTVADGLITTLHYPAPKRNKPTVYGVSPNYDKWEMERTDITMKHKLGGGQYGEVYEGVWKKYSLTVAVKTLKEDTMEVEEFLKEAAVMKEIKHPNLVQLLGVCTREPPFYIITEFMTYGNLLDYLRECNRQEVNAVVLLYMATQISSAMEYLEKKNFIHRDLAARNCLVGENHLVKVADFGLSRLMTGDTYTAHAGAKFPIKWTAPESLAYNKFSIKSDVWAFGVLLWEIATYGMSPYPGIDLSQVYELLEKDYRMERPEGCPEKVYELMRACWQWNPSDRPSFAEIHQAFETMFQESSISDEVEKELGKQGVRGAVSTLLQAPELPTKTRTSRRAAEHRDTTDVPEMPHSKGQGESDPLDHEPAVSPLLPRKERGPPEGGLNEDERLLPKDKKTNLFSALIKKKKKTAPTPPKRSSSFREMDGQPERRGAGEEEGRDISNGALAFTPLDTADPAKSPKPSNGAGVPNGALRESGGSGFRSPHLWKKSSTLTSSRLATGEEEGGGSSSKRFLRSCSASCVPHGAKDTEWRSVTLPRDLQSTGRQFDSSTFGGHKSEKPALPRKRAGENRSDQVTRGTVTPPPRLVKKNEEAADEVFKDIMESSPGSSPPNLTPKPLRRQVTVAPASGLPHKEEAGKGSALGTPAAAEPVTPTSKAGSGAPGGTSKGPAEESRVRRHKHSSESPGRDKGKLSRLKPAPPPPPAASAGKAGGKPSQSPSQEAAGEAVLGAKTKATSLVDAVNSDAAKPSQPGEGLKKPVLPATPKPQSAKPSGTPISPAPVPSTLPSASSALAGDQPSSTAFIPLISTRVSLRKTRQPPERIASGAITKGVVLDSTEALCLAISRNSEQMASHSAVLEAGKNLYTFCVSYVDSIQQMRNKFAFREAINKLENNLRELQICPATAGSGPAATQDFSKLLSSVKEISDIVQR
Sequence of Ras and Rab interactor 1/Tyrosine-protein kinase ABL1 (Q13671 whole entry): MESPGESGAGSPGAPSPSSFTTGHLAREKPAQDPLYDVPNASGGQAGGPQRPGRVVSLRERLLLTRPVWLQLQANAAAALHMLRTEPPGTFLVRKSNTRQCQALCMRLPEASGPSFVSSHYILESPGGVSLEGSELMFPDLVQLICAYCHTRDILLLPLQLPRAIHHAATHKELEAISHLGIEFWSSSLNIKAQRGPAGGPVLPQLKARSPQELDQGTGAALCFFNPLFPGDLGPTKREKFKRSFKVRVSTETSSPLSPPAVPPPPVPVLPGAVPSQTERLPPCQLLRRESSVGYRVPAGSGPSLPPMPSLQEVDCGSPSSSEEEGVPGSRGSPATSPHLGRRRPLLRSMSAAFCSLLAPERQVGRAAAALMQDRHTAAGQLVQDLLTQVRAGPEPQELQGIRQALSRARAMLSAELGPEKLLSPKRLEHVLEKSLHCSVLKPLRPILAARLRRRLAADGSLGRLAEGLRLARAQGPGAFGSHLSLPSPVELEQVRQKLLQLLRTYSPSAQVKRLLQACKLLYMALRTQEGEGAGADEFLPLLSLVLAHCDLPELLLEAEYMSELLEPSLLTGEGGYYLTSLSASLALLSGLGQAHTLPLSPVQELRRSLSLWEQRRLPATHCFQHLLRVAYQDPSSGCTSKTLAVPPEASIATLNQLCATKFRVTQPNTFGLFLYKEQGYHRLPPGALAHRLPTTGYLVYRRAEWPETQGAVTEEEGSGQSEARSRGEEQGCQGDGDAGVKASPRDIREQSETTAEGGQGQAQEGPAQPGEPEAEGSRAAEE

T2 sequence (P07237 whole entry): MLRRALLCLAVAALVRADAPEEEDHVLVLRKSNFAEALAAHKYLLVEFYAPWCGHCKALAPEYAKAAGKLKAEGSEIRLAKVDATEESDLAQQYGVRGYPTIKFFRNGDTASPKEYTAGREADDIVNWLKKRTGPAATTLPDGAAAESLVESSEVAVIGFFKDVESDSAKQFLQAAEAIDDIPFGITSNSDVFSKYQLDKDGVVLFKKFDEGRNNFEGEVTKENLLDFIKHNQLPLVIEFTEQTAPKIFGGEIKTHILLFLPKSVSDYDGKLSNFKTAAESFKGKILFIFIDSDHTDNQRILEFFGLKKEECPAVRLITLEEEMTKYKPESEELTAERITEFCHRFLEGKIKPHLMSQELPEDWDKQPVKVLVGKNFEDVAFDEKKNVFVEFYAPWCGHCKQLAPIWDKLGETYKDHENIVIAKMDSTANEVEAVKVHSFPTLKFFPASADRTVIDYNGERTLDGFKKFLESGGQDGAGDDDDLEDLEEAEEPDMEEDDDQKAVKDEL
Sequence of Nucleotide-binding oligomerization domain-containing protein 2 (Q9HC29 whole entry, the tested form may be a part): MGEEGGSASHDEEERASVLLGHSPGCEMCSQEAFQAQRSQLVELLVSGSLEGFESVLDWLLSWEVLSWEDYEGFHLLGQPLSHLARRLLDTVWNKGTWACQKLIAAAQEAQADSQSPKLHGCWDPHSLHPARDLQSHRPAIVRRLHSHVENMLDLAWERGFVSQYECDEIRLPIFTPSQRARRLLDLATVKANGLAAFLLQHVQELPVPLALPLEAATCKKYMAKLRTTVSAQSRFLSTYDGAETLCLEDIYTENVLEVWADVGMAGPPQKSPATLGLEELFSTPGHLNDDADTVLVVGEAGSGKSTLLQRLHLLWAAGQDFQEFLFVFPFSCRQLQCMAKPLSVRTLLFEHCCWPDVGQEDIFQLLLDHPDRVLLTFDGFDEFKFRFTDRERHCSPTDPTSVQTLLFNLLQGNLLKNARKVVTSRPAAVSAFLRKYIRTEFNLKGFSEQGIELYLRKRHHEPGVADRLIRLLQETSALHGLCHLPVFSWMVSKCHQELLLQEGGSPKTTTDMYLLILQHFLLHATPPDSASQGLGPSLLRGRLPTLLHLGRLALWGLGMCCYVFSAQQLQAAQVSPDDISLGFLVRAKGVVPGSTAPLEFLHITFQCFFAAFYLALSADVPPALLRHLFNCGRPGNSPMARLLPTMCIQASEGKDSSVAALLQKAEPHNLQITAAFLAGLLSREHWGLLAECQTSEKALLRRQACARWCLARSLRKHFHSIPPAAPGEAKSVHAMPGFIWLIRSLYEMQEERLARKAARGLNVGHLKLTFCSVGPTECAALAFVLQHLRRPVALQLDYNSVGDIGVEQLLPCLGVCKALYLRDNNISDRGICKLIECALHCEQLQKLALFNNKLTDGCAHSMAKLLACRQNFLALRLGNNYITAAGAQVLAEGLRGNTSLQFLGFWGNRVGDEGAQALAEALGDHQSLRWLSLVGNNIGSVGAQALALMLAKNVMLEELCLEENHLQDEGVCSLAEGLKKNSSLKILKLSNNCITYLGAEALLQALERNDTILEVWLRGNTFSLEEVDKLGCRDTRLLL
Sequence of PglD (O86157 whole entry): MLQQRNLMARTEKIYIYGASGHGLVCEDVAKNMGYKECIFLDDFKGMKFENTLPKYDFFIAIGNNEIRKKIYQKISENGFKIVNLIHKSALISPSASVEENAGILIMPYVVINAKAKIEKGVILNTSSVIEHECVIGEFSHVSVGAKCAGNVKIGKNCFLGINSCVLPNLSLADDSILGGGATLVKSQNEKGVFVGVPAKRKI
Sequence of ATP-dependent translocase ABCB1 (P08183 whole entry): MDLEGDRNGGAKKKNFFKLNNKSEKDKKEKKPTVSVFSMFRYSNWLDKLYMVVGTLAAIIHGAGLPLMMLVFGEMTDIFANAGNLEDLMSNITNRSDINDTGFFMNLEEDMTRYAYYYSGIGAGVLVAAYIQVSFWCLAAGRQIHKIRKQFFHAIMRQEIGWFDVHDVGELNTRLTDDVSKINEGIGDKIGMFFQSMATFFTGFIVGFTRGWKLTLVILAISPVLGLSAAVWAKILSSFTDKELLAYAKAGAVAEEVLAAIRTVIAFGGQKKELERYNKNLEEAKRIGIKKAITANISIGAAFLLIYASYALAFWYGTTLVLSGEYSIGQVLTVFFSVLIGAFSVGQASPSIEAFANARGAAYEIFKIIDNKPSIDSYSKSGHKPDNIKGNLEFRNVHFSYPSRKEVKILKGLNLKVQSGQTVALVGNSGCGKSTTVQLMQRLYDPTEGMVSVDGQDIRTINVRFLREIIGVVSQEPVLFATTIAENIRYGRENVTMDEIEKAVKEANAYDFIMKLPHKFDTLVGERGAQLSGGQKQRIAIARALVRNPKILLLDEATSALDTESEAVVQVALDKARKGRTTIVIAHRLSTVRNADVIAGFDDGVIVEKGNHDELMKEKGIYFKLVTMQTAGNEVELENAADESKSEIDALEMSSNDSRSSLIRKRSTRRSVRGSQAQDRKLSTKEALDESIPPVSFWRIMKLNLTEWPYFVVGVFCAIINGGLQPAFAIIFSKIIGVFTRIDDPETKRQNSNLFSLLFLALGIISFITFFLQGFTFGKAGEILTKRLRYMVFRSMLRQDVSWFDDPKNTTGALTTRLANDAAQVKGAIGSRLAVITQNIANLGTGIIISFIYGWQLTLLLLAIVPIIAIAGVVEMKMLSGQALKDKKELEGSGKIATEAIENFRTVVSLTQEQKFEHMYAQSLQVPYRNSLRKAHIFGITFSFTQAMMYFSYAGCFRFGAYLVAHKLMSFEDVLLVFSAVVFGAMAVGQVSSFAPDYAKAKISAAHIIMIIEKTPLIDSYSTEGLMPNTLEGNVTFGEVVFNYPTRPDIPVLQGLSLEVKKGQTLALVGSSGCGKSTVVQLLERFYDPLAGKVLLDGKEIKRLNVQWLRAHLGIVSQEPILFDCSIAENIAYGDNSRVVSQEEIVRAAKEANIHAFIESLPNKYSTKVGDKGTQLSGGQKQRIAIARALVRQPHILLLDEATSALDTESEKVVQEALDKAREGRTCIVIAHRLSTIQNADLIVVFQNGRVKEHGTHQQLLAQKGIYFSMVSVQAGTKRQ

Structure (SMILES): Cn1c(=O)c2c(nc(Oc3ccc4ccccc4c3)n2C)n(C)c1=O
- AC50 [1]: 2.05 µM (active)
- IC50 (HEK293 [2]): 3.32 µM (active)
- AC50 [3]: 18.4 µM (active)
- AC50 [4]: 40.2 µM (active)
- EC50 [5]: 4.28 µM (active)
- IC50 (Interleukin-8): 14 µM (inactive)
- IC50 (HEK293 [6]): 3.88 µM (active)
- EC50 (HEK293 [7]): 6.6 µM (active)
- IC50 (HEK293 [8]): > 20 µM (inactive)
- IC50 (HEK293 [9]): > 20 µM (inactive)
- AC50 [10]: 11.6 µM (active)

Structure (SMILES): COc1ccc(-c2cc3nc(-c4ccccc4)cc(N4CCN(C(=O)c5ccoc5)CC4)n3n2)cc1
- EC50 [13]: 0.94 µM (active)
- IC50 (H9c2): > 79 µM (inactive)

Structure (SMILES): Oc1c(CN2CCN(c3ccccc3)CC2)cc(Cl)c2cccnc12
- AC50 [14]: 0.964 µM (active)

The remaining lines, values ahead:

- AC50 [11]: < 0.009 µM (active)
- AC50 [12]: 0.009 µM (active)
Structure (SMILES): CC1Cc2ccccc2N1C(=O)CSc1nnc2sc3ccccc3n12 (stereo not drawn)

- AC50 (PglD): 4.58 µM (active)
Structure (SMILES): Cc1c(C(=O)O)sc2nc(/C=C/c3cccc(O)c3)nc(O)c12

- IC50 [15]: 12.8 µM (inactive)
Structure (SMILES): CCOC(=O)CCCCC(=O)c1[nH]c(=O)[nH]c1Cn1ccnc1
